Source: US20240382451A1, “ORGANONITRO AND SULFOXYALKYL ORGANONITRO COMPOUNDS FOR USE IN TREATING MEDICAL DISORDERS” (EpicentRx, Inc., priority 2021, published 2024)

Experiments:
[1] = system: 3×Tg-AD mice; experiment: Morris water maze test in aged triple transgenic Alzheimer's disease mouse model; type: in vivo; details: 2 mg/kg intraperitoneal once weekly for 3 months
Method: (§1) The neuroprotective effects of RRx-001 administration on Alzheimer's Disease (AD), which has been linked to aberrant NLR family pyrin domain containing 3 (NLRP3) activation, were evaluated via intraperitoneal injection once weekly for 3 months on aged (18-21 months old) homozygous triple transgenic AD mouse model (3×Tg-AD, Jackson Labs). 3×Tg mice received either 2 mg/kg RRx-001 (n=3) or vehicle (n=3), and were evaluated against control non-transgenic mice (NonTg, Jackson Labs) that were untreated (n=3).
Five days after the last treatment, the mice were tested using a Morris water maze test. The next week, the mice were exposed to an elevated maze test. The latency to reach the exact hidden platform location on the Morris water maze test (FIG. 1A) and the number of crossings of the platform target quadrant (FIG. 1B) were recorded.

[2] = system: 3×Tg-AD mice; experiment: Oxidative stress markers and amyloid plaque density in aged 3×Tg-AD mice; type: in vivo, mouse; details: 2 mg/kg intraperitoneal once weekly for 3 months
Method: as §1

[3] = system: bone marrow derived macrophages (BMDMs); experiment: LPS-primed bone marrow derived macrophages: cytokine expression, IL-1β release, cytosolic Ca2+; type: cell-based; details: BMDMs primed with LPS 50 ng/mL for 30 minutes, then 0.5 μM RRx-001 for 4 hours
Method: Bone marrow derived macrophages (BMDMs) were primed with LPS (50 ng/mL) for 30 minutes before being treated with RRx-001 (0.5 μM) for 4 hours. FIG. 4A depicts the expression levels of IFN-γ, IL-12, TNF-α, and IL-1β from the three groups: (i) control (not primed with LPS), (ii) LPS+vehicle (primed with LPS but not treated with RRx-001), (iii) and LPS+RRx-001 (primed with LPS and treated with RRx-001). FIG. 4B depicts IL-1β release over time from the three groups. FIG. 4C depicts cytosolic Ca^2+ levels over time for the three groups.

[4] = system: bone marrow derived macrophages (BMDMs); experiment: DSS-primed bone marrow derived macrophages: IL-1β release; type: cell-based; details: BMDMs primed with DSS, 0.5 μM or 1.0 μM RRx-001
Method: FIG. 5 depicts IL-1β release from the four groups of bone marrow derived macrophages (BMDMs): (i) control (not primed with DSS). (ii) DSS+vehicle (primed with DS but not treated with RRx-001), (iii) DSS+RRx-001 (0.5 μM; primed with DSS and treated with 0.5 μM RRx-001), and (iv) DSS+RRx-001 (1.0 μM; primed with DSS and treated with 1.0 μM RRx-001).

[5] = system: C57BL/6 mice; experiment: Dextran sulfate sodium (DSS) induced colitis in mice; type: in vivo, mouse; details: 2% or 4% DSS for 9 days, 5 or 10 mg/kg
Description: Colitis was induced in C57BL/6 mice with 2% or 4% dextran sulfate sodium (DSS; 40 kDa) dissolved in drinking water given ad libitum for 9 days. Control mice were given filtered water. FIG. 6A depicts changes in mice body weight over a 9-day period for each of the three groups: (i) control (filtered water), (ii) 2% DSS, and (iii) 4% DSS. FIG. 6B depicts colon length of mice in each group after the 9-day period.
FIGS. 7A and 7B depict changes in mice body weight over a 9-day period for each of the six groups: (i) 2% DSS+vehicle, (ii) 2% DSS+RRx-001 (5 mg/kg), and (iii) 2% DSS+RRx-001 (10 mg/kg) in FIG. 7A; and (iv) 4% DSS+vehicle, (v) 4% DSS+RRx-001 (5 mg/kg), and (vi) 4% DSS+RRx-001 (10 mg/kg) in FIG. 7B. While the 2% or 4% DSS was given ad libitum for 9 days as described above, vehicle, 5 mg/kg RRx-001, or 10 mg/kg RRx-001 was given as intravascular injections of pre-mixed blood formulations every other day during the 9-day period. […] FIGS. 7C and 7D depict colon length of mice in each of the six groups. […] FIGS. 7E and 7F depict serum IL-1β levels in mice in each of the six groups. […] FIGS. 7G and 7H depict colon homogenate IL-1β levels in mice in each of the six groups. FIGS. 7I and 7J depict colon homogenate IL-1β levels relative to the average IL-1β level of the control (i.e., DSS+vehicle) in mice in each of the six groups.
FIGS. 8A and 8B depict the changes in mice body weight over the 9-day period for each of the six groups: (i) 2% DSS+vehicle. (ii) 2% DSS+RRx-001 (5 mg/kg), and (iii) 2% DSS+RRx-001 (10 mg/kg) in FIG. 8A; and (iv) 4% DSS+vehicle, (v) 4% DSS+RRx-001 (5 mg/kg), and (vi) 4% DSS+RRx-001 (10 mg/kg) in FIG. 8B. While the 2% or 4% DSS was given ad libitum for 9 days as described above, vehicle, 5 mg/kg RRx-001, or 10 mg/kg RRx-001 was given as intraperitoneal injections every other day during the 9-day period. […] FIGS. 8C and 8D depict colon length of mice in each of the six groups. […] FIGS. 8E and 8F depict serum IL-1β levels in mice in each of the six groups. […] FIGS. 8G and 8H depict colon homogenate IL-1β levels in mice in each of the six groups.

[6] = intraperitoneal injections every other day
[7] = intravascular injections of pre-mixed blood formulations every other day

O=C(CBr)N1CC([N+](=O)[O-])([N+](=O)[O-])C1 [RRx-001, 2-bromo-1-(3,3-dinitroazetidin-1-yl)ethanone] was tested, and the “spatial learning tasks (trend in latency across trials)” value [1] was “improvement”, the “latency to locate the platform on the Morris water maze test” value ([1]; vs vehicle) was “significantly reduce” and the amyloid plaque density [2] was “decrease”. For the same compound, the “lipid peroxidation (thiobarbituric acid-reactive substance (TBAR) levels)” value [2] was “decrease”, the “reduced glutathione (GSH) compared to glutathione disulfide (GSSG)” value [2] was “significant increase” and the “calcium accumulation in activated macrophages (cytosolic Ca2+ levels)” value [3] was “prevents calcium accumulation”. For the same compound, the “inflammation-driven expression of certain cytokines such as IL-1β” value [3] was “significantly reduces”, the “inflammatory effect of DSS (IL-1β release)” value [4] was “significantly reduces” and the “DSS-induced expression of colon homogenate IL-1β” value [5, 6] was “reduces”. For the same compound, the “DSS-induced expression of serum IL-1β” value [5, 6] was “reduces”, the “body weight loss due to DSS induced colitis” value [5, 6] was “significantly mitigates” and the “colon length reduction due to DSS induced colitis” value [5, 6] was “mitigates”. The “DSS-induced expression of colon homogenate IL-1β” value [5, 7] was “reduces”, the “DSS-induced expression of serum IL-1β” value [5, 7] was “reduces” and the “body weight loss due to DSS induced colitis” value [5, 7] was “significantly mitigates”. For the same compound, the “colon length reduction due to DSS induced colitis” value [5, 7] was “mitigates”.
